Results from US11446351B2, “Composition for treating one or more estrogen related diseases” (LIFEARC, priority 2018, dated 2022).
Where a name gives a salt, the structure may show the parent alone. Where a SMILES comes first, the peptide text is derived from it. [ ]: non-standard residue; d: D form. dPhe(4-Cl) = N[C@H](Cc1ccc(Cl)cc1)C(=O)O; d2Nal = N[C@H](Cc1ccc2ccccc2c1)C(=O)O; d(hCit) = NC(=O)NCCCC[C@@H](N)C(=O)O; Lys(iPr) = CC(C)NCCCC[C@H](N)C(=O)O; d3Pal = N[C@H](Cc1cccnc1)C(=O)O

What was measured:
Assay type in all cases: in vivo, human
women [1] = test: Phase I study (Example 2): bone marker CTX in serum
Protocol: (§1) In order to evaluate the effect of the treatment with Teverelix TFA on the bone mineral density, two biochemical bone mineral markers was measured in the subjects. Telopeptides type I collagen, cross-linked, […] (CTX) was measured in serum of the treated subjects, and deoxypyridinoline (DPD) was measured in the subject's urine.
(§2) Said bone markers were measured on the following days in the test period: 1 (pre-dose), 15, 29, 43, 57, 64
(§3) DPD is a dynamic biochemical marker of bone loss. An increase in DPD levels in an early morning urine specimen is a reliable indicator of increased bone loss. The CTX test measures for the presence and concentration of a crosslink peptide sequence of type I collagen, found, among other tissues, in bone. This specific peptide sequence relates to bone turnover because it is the portion that is cleaved by osteoclasts during bone resorption, and its serum levels are therefore proportional to osteoclastic activity at the time the blood sample is drawn.
(§4) The concentration of DPD and CTX test were carried out at MOS Pharma Services, Central Lab GmbH, Grossmoorbogen 25, 21079 Hamburg, Germany by means of highly sensitive and specific validated chemi-luminescent (CUA) and enzyme-linked immuno-sorbent (ELISA) methods. The results are shown in FIG. 7 and table 6 respectively.

women [2] = test: Phase I study (Example 2): bone marker deoxypyridinoline (DPD) in urine; settings: 30 mg and 45 mg, days 1-64, FIG. 7
Protocol: as §1, §2, §3, §4

[3] = Phase I study (Example 2): Teverelix TFA concentrations in serum
Protocol: Two formulations comprising either 45 mg or 30 mg Teverelix TFA and a placebo formulations, were prepared as described in example 1, i.e. the following formulations were prepared
The respective formulations were each injected subcutaneous (s.c.) to 24 subjects—12 per group i.e. 8 on active drug 4 on placebo per group. All subjects received a dose on either the active or placebo s.c. on day 3±1 of the menstrual cycle, i.e. • A single dosage of formulation B (45 mg Teverelix TFA) administered s.c. on day 3±1 of the menstrual cycle, • A single dosages of formulation C (30 mg Teverelix TFA) administered s.c. on day 3±1 of the menstrual cycle, and • A single dosage of formulation B placebo or formulation C placebo administered s.c. on day 3±1 of the menstrual cycle.
The concentration of Teverelix TFA, and Estradiol was measured over a period of 63 days. Additionally, the effect on Teverelix TFA on two bone markers was measured.
The mean Teverelix TFA concentration in the serum of the respective subjects was measured.

CC(=O)N[C@H](Cc1ccc2ccccc2c1)C(=O)N[C@H](Cc1ccc(Cl)cc1)C(=O)N[C@H](Cc1cccnc1)C(=O)N[C@@H](CO)C(=O)N[C@@H](Cc1ccc(O)cc1)C(=O)N[C@H](CCCCNC(N)=O)C(=O)N[C@@H](CC(C)C)C(=O)N[C@@H](CCCCNC(C)C)C(=O)N1CCC[C@H]1C(=O)N[C@H](C)C(N)=O [Teverelix TFA, N-Ac-d-Nal^1,d-pCl-Phe^2,d-Pal^3,d-(Hci)^6,Lys(iPr)^8,d-Ala^10 trifluoroacetate] (Ac-[d2Nal][dPhe(4-Cl)][d3Pal]SY[d(hCit)]L[Lys(iPr)]P[dA]-NH2; C-terminus assumed)
alteration in bone marker serum CTX during the study (women [1]; 30 mg and 45 mg, days 1-64): no significant alteration
CTX in serum, Mean (women [1]; 30 mg, Day 1 (pre-dose)): 16.7 ng/L
CTX in serum, Mean (women [1]; 30 mg, Day 15): 17.1 ng/L
CTX in serum, Mean (women [1]; 30 mg, Day 29): 17 ng/L
CTX in serum, Mean (women [1]; 30 mg, Day 43): 16.7 ng/L
CTX in serum, Mean (women [1]; 30 mg, Day 57): 16.5 ng/L
CTX in serum, Mean (women [1]; 30 mg, Day 64): 16.2 ng/L
CTX in serum, Mean (women [1]; 45 mg, Day 1 (pre-dose)): 22.6 ng/L
CTX in serum, Mean (women [1]; 45 mg, Day 15): 22.4 ng/L
CTX in serum, Mean (women [1]; 45 mg, Day 29): 21.6 ng/L
CTX in serum, Mean (women [1]; 45 mg, Day 43): 22 ng/L
CTX in serum, Mean (women [1]; 45 mg, Day 57): 19.3 ng/L
CTX in serum, Mean (women [1]; 45 mg, Day 64): 17.3 ng/L
alteration in bone marker urine DPD during the study (women [2]): no significant alteration
period with quantifiable levels in serum ([3]; 30 mg dose): 42 days
Mean Teverelix TFA concentration in serum ([3]; 30 mg s.c., 0 h): 0.00 ng/L
period with quantifiable levels in serum ([3]; 45 mg dose): 64 days
Mean Teverelix TFA concentration in serum ([3]; 45 mg s.c., 0 h): 0.00 ng/L
Mean Teverelix TFA concentration in serum ([3]; 30 + 45 mg groups, 0 h): 0.00 ng/L
Mean Teverelix TFA concentration in serum ([3]; 30 + 45 mg groups, 0.5 h): 5.79 ng/L
